Values of other authors in patent US7799335B2, “Differential delivery of nitric oxide” (Boston Scientific Scimed, Inc., priority 2001, dated 2010).

Key:
[1] = system: human aortic vascular smooth muscle cells; details: exogenously and endogenously produced nitric oxide, 10^−5 to 10^−3 molar; Tanner et al. 2000
endothelial cells = details: low levels of nitric oxide (SNP 10-50 uM); Rossig et al. 2000
vasodilation = details: compared with SNAP
platelet aggregation = details: compared with SNAP

SMILES | effect on smooth muscle cell proliferation [1] | effect on TNF-alpha induced apoptosis (endothelial cells) | effectiveness as vasodilator (vasodilation) | inhibition of platelet aggregation (platelet aggregation)
[N]=O [nitric oxide] | prevented smooth muscle cell proliferation by inducing G1 phase arrest | prevented TNF-alpha induced apoptosis in endothelial cells |  | 
N[C@@H](CCC(=O)N[C@@H](CSN=O)C(=O)NCC(=O)O)C(=O)O [GSN70, S-nitrosoglutathione] |  |  | less effective vasodilator than SNAP | the opposite is true
